Laboratory results as given in US20240083903A1, “ARYL ETHER COMPOUNDS AS TEAD MODULATORS” (Merck Sharp& Dohme LLC, priority 2021, published 2024).

System: TEAD Reporter-MCF7 cell line
Experiment: YAP/TEAD cellular activity assay: inhibition of TEAD-Luc activity in TEAD Reporter-MCF7 cell line
Format: cell-based, human
Conditions: Homo sapiens, MCF7, 24 h, TEAD Reporter-MCF7 cells, 24 hours incubation with compound, luciferase readout
Procedure, shortened: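 MCF7 cells stably carrying a TEAD-responsive firefly luciferase reporter were seeded at 10,000 cells/well, grown 20-24 h, then exposed to compounds for 24 h at 37° C. Luciferase read by ONE-Glo EX luminescence; percent inhibition and EC50 derived.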

EC50: 8.7 nM
SMILES: CNS(=O)(=O)c1cnc(Oc2ccc(C(F)(F)F)cc2)c(-c2cn3c(n2)CCC3)c1 [11-1, 5-(6,7-dihydro-5H-pyrrolo[1,2-a]imidazol-2-yl)-N-methyl-6-[4-(trifluoromethyl)phenoxy]pyridine-3-sulfonamide]
